Test results from patent publication US20050226924A1, “Composition comprising itraconazole for oral administration” (priority 2004, published 2005).
In brackets after ≈: the same amount, converted by molar mass.

Assays:
[1] = Solubility test in dissolution medium (pH 1.2); format: physicochemical; details: dissolution medium (pH 1.2) of Korea Pharmacopeia, simulated gastric fluid, thermodynamic from solid; dissolution medium pH 1.2, shaken at 25° C. for 24 hours, HPLC; Mean ± SD, n = 3
Experimental: Samples, equivalent to 30 mg of itraconazole, was added to […] of the test solution. The test solution used was the dissolution medium (pH 1.2) for dissolution test of Korea Pharmacopeia. After the samples were ultrasonicated for 30 minutes, they were shaked at 25° C. for 24 hours. Then, they were centrifuged at 3000 rpm for 20 minutes. The obtained supernatant was filtered using a 0.45 μm membrane filter, followed by 10-fold dilution with methanol. The content of itraconazole was measured by HPLC.

[2] = cited from earlier work

solubility at 24 h [1]: 1.5 ± 0.7 µg/mL (≈ 2.13 µM)
Structure (SMILES): CCC(C)n1ncn(-c2ccc(N3CCN(c4ccc(OCC5COC(Cn6cncn6)(c6ccc(Cl)cc6Cl)O5)cc4)CC3)cc2)c1=O (racemic) [Itraconazole, (±)-cis-4-[4-[4-[4-[[2-(2,4-dichlorophenyl)-2-(1H-1,2,4-triazole-1-yl-methyl)-1,3-dioxolane-4-yl]methoxy]phenyl]-1-piperazinyl]phenyl]-2,4-dihydro-2-(1-methylpropyl)-3H-1,2,4-triazole-3-one]
Solubility in dichloromethane ([2]; dichloromethane): 239000 µg/mL (≈ 339000 µM)
Solubility in water ([2]; water): less than 1 μg/ml
